Data taken from patent US6352996B1, “Liposomal prodrugs comprising derivatives of camptothecin and methods of treating cancer using these prodrugs” (priority 1999, dated 2002).
Read-outs that look alike come from different tables or passages of the source.

Experiments:
[1] = system: U-937 cells; test: Growth inhibition of U-937 cells treated with CPT esters; format: cell-based; conditions: 0.2 μM, 120 hr, percent of exponential growth of untreated cells (100%), mean of four estimates
Description: Growth inhibition of U-937 cells treated with various CPT esters.
Each identified compound was added to reach a culture of U-937 cell having a final concentration of 0.2 μM. The treatment time was for 120 hr. Growth inhibition in each of the treated cultures was then estimated as a percent of the exponential growth of the cells that was considered 100%. Each estimate was the mean value of four estimates.

[2] = cited from earlier work
[3] = Closed lactone form in plasma of mice after intrastomach administration; format: in vivo; conditions: mice, plasma after intrastomach administration (FIG. 1)
[4] = Stability of lactone form in human plasma; format: in vitro ADME; conditions: for Percent in plasma (lactone, percent of the initial lactone amount added): 1 μg/ml
Description: CPT or SF6A lactone was added to human plasma (1 μg/ml) and an incubation and lactone determination were made as described in Example 15. The lactone amount at each time-point was detected after removing the carboxylate form, and subsequently was calculated as percent of the initial lactone amount added. The results shown in this Table below were derived from one of the three independent experiments performed using different incubation times. The pattern of quantitation of the lactones was similar in all three experiments.

[5] = Closed lactone form in human plasma after oral administration; conditions: for % present as closed lactone form in human blood/plasma: after oral administration (FIGS. 2, 4, 5, 7, 8)
[6] = system: DOY lung carcinoma; conditions: 10 and 20 mg/kg intrastomach, day 34 (FIG. 12)
From the text: (§1) Human malignant carcinomas of the colon, breast, lung, ovary, stomach, pancreas, bladder, prostate, osteosarcoma and malignant melanomas were heterotransplanted directly from patients into the nude mice and passaged serially. In particular, the tumors CLO, MUR, CAS, SW 48, SQU and BRO as described in Giovanella, B. C., Stehlin, J. S., Shepard, R. C. and Williams, L. J. “Correlation between response to chemotherapy of human tumors in patients and in nude mice.” Cancer 52: 1146-1152; 1983, tumor SCH as described in Heim, S., Mandahl, N., Arheden, K., Giovanella, B. C., Yim, S. O., Stehlin, J. S., Jr. and Mitebman, F. “Multiple karyotypic abnormalities including structural rearrangements of 11P in cell lines from malignant melanomas.” Cancer Genet. Cytogent, 35:5-20; 1988, and Verschraegen, C., Ciovanella, B. C., Mendoza, J. T., Kozielski, A. J. and Stehlin, J. S., Jr. “Specific organ metastases of human melanoma cells injected into the arterial circulation of nude mice.” Anticancer Res., In Press, and tumor PC-3 as described in Invest. Urol. 17, 16-23, 1979, were used. […]

[7] = system: BRO melanoma; conditions: 20 mg/kg intrastomach, 20 days (FIG. 10)
From the text: as §1

[8] = system: human tumor xenografts; conditions: nude mice
[9] = system: SQU colon carcinoma; conditions: 10 mg/kg intrastomach or intramuscular, until day 111 (FIG. 15)
From the text: (§2) Swiss nude mice of the NIH high fertility strain were bred and maintained pathogen-free in a laboratory. (Giovanella, B. C. and Stehlin, J. S. “Heterotransplantation of human malignant tumors in ‘nude’ thymusless mice. I. Breeding and maintenance of ‘nude’ mice.” J. Natl. Cancer Inst. 51: 615-619; 1973.)
as §1

[10] = system: SW48 colon carcinoma; conditions: interstomach 10 or 20 mg/kg in cottonseed oil, 5 days on/2 days off, fast and non-fast, day 13-34 (FIG. 9)
From the text: as §2, §1

[11] = system: 2774 ovarian carcinoma; conditions: for tumor size: day 41 (FIG. 13)
Description: (§3) One group of six nude mice where treated interstomach with 10 or 20 mg,/kg body weight Compound IA in cottonseed oil per day for five consecutive days with two day intervals of no treatment (i.e., five days of treatment then two days no treatment, and five day treatment and so on). Another group of six nude mice were treated with 10 or 20 mg/kg body weight Compound IA in the same manner. There were also two control groups of six nude mice each. The designation of “fast” means no food was fed to the mice for at least 12 hours before treatment and the designation of “non-fast” means fed normally. Thus, in this experiment, there were 4 groups of mice with 6 mice in each group.
The route of administration and the dosage regimen were the same as in FIG. 9 except there were only 5 mice in each group and only one control group was used.

[12] = system: McC colon carcinoma; conditions: 20 mg/kg intrastomach or intramuscular twice a week, day 11 to day 25 (FIG. 14)
Description: as §3

[13] = system: BRE stomach carcinoma; conditions: 10 and 20 mg/kg intrastomach, until day 34 (FIG. 11)
From the text: Human malignant carcinomas of the colon, breast, lung, ovary, stomach, pancreas, bladder, prostate, osteosarcoma and malignant melanomas were heterotransplanted directly from patients into the nude mice and passaged serially. […] Tumors DOY and HAR (undifferentiated non-oat cell carcinomas of the lung), DIL (a poorly differentiated squamous cell carcinoma of the lung), SPA (a moderately differentiated adenocarcinoma of the lung), LAN (an undifferentiated carcinoma of the ovary), and BRE (a moderately differentiated adenocarcinoma of the stomach) where heterotransplanted. For the experiments, the tumor tissue was finely minced in complete MEM medium and 0.5 ml of a 10% v/v suspension was inoculated subcutaneously on the upper back of groups of 10-30 mice. When the tumors became palpable and measurable in all the animals, they were divided into groups of 4-8 and treated with the desired dose of the drug in experiment or with the vehicle only for the controls,
The dosage regimen and manner of administration are the same as in FIG. 9 except there were 5 mice per group and only one control group.

## CC[C@@]1(O)C(=O)OCc2c1cc1n(c2=O)Cc2cc3ccccc3nc2-1 [CPT, 20(S)-camptothecin]
[1]
  Growth %: 0.0%
[2]
  solubility in water: insoluble in water
[3]
  closed lactone form, share of the area under the curve: approximately 54%
[4]; Time 0 Hr
  Lactone % in Human Plasma: 100%
[4]; Time 1 Hr
  Lactone % in Human Plasma: 12%
[4]; Time 2 Hr
  Lactone % in Human Plasma: 0.5%
[4]; Time 4 Hr
  Lactone % in Human Plasma: 0%
[4]; Time 6 Hr
  Lactone % in Human Plasma: 0%
[4]; human plasma
  metabolite detected: the only metabolite detected is the ring-opened sodium carboxylate salt
[4]; human plasma, incubation time 0.0 hr
  Percent in plasma (lactone, percent of the initial lactone amount added): 100.0%
[4]; human plasma, incubation time 0.5 hr
  Percent in plasma (lactone, percent of the initial lactone amount added): 40.0%
[4]; human plasma, incubation time 1.0 hr
  Percent in plasma (lactone, percent of the initial lactone amount added): 12.0%
[4]; human plasma, incubation time 2.0 hr
  Percent in plasma (lactone, percent of the initial lactone amount added): 0.5%
[4]; human plasma, incubation time 4.0 hr
  Percent in plasma (lactone, percent of the initial lactone amount added): 0.0%
[4]; human plasma, incubation time 6.0 hr
  Percent in plasma (lactone, percent of the initial lactone amount added): 0.0%
[4]; human plasma, incubation time 27.0 hr
  Percent in plasma (lactone, percent of the initial lactone amount added): 0.0%
[4]; human, human plasma, read-out: half-life time of the drug with lactone intact
  half-life: 30 min
[5]
  % present as closed lactone form in human blood/plasma: 0.4%
[5]; humans, after oral administration (FIG. 2)
  closed ring lactone form, share of the area under the curve: about 0.4%

## CCC(=O)O[C@]1(CC)C(=O)OCc2c1cc1n(c2=O)Cc2cc3c([N+](=O)[O-])cccc3nc2-1 [Prodrug 11, 9-Nitrocamptothecin-20-O-propionate]
[6]
  tumor size: dramatic reduction
[7]
  tumor size: decreased in size
[8]
  antitumor activity against xenografts of human tumors: even higher than the camptothecin analogue, Prodrug 2
[9]
  tumor size: essentially stabilized
[10]
  tumor size: decline in the tumor size
[11]; 5 mice per group, day 41
  survival: all mice survived the experiment in each group
[11]; higher dosage (10 and 20 mg/kg tested) intrastomach
  tumor size: quite effective in reducing the tumor size
[11]; lesser dosage (10 and 20 mg/kg tested) intrastomach
  tumor size: steady increase in tumor size
[12]
  tumor size: increased slightly but then stabilized
[5]
  % present as closed lactone form in human blood/plasma: 68.7%
[5]; human, oral administration, versus CPT or 9NC
  increase of lactone share over the parent compound: more than twentyfold
[13]
  tumor size: prevention of the growth in the tumor size
